According to patent US20160309708A1, “POLYCARBOXYLIC ACID ESTER ALKYL DERIVED FROM BRANCHED AND STRAIGHT ALCOHOL OF PLANT ORIGIN, AND USE OF AN ALKYL ESTER IN AGROCHEMICAL FORMULATIONS” (priority 2013, published 2016):

Assay: Solubility limit of active ingredients in the alkyl esters of polycarboxylic acids at 25° C.
Format: physicochemical
Details: under agitation, solvent: alkyl esters of polycarboxylic acids

Row | Compound | solubility limit in alkyl esters of polycarboxylic acids of this invention
1 | Cc1c(COC(=O)[C@@H]2[C@H](/C=C(\Cl)C(F)(F)F)C2(C)C)cccc1-c1ccccc1 (racemic) [BIFENTRIN, Bifenthrin] | 702 GRAMS PER LITER
2 | CCOP(=S)(OCC)Oc1nc(Cl)c(Cl)cc1Cl [CHLORPYRIFOS, Chlorpyrifos] | 900 GRAMS PER LITER
3 | CCCC1COC(Cn2cncn2)(c2ccc(Cl)cc2Cl)O1 (centres unmarked) [PROPICONAZOLE, Propiconazole] | 1568 GRAMS PER LITER
4 | CC(C)(C)C(O)(CCc1ccc(Cl)cc1)Cn1cncn1 (centres unmarked) [TEBUCONAZOLE, Tebuconazole] | 240 GRAMS PER LITER
5 | Abamectin | 116 GRAMS PER LITER
